Where “and” joins values, the source holds several entries; their conditions need not be identical. Equal entries are not always repeated. Where two headings read alike, the source gives them in different places. Ends that are not written are not given here. Peptide text beside a SMILES is read from it. * marks the point of attachment. Biotin = O=C1N[C@H]2[C@H](CS[C@H]2CCCCC(=O)*)N1
How the values were obtained:
Experiment in all cases: SPR binding of MBP-PDZ analyte to immobilised biotinylated peptides
[1] = target: T1, SCRIB-34/4 tandem PDZ construct (Homo sapiens, UniProt Q14160); conditions: SPR Biacore 2000, 25 C, steady state, 1:1 binding isotherm, MBP-PDZ 0-30 µM, to be considered with caution
T1 construct: residues 997–1093, 1097–1193 and 997–1193 of human SCRIB (Uniprot acc.: Q14160-1); made in house; host or cells: E. coli BL21 DE3
T1 sequence (Q14160 997-1193 isoform Q14160-1): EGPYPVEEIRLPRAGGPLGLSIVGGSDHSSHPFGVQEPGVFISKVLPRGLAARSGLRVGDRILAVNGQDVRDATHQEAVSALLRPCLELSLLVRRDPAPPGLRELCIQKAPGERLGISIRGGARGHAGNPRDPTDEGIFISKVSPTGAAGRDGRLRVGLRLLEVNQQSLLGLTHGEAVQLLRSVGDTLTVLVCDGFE
Experimental: (§1) We opted for the surface plasmon resonance (SPR) method to measure these 190 (19 proteins×2 peptide versions×5 PDZ constructs) interactions. In SPR various concentrations of “analytes” (here, PDZ domains fused to the Maltose Binding Protein (MBP)) flow over surfaces presenting attached “ligands” (here, biotinylated peptides). The amount of analyte interacting with the ligand is measured and quantified in response units (RU). The intensity of this signal is proportional to the binding strength of the assayed interaction (Figure 5A). K [drawing 13] were obtained using a 1∶1 interaction model. However, these calculated K [drawing 14] were rather inaccurate especially for weak interactions. Therefore, we preferred to rank the binding strengths of the 190 interactions using normalised RU signals at equilibrium ( [drawing 15] ) rather than K [drawing 16] (see Methods for details). These normalised [drawing 17] values were plotted in form of a heat map (Figure 5B).
(§2) The cDNA encoding residues 448–572 and 613–752 of mouse MAGI-1 (UniProt acc.: Q6RHR9-1) encoding for MAGI1-2/6 (100% identical to human MAGI1-2/6) and MAGI1-3/6 (99% identical to human MAGI1-3/6) PDZ domains, respectively, were inserted into the NcoI/KpnI sites of the pETM-41 expression vector (EMBL) containing a 6×His-MBP tag followed by a TEV protease cleavage site. A similar cloning strategy was adopted for cDNA bearing residues 997–1093, 1097–1193 and 997–1193 of human SCRIB (Uniprot acc.: Q14160-1) encoding for SCRIB-3/4, SCRIB-4/4 PDZ domains and SCRIB-34/4 tandem PDZ construct, respectively.
(§3) Data were collected on a Biacore 2000 instrument (Biacore AB/GE Healthcare Bio-Sciences Corp., Piscataway, NJ, USA) at 25 [drawing 74] C. SPR experiments (ligand immobilisation and binding measurements) have been performed as described in Fournane et al.. Briefly, biotinylated peptides (instead of GST-fused recombinant peptides) were immobilised on CM5 sensorchips on which Neutravidin was previously attached. The MBP-PDZ domain analyte was injected at 8 to 10 different concentrations ranging from 0 up to 30 [drawing 75] M. Data were processed using the BiaEvaluation 3.2 software (Biacore AB/GE Healthcare Bio-Sciences Corp.) using “double referencing” [78] in which sensorgrams were corrected for buffer effects and bulk refractive index changes.
(§4) The steady-state binding signal ( [drawing 76] ) was derived by averaging the signals in a five second window at equilibrium. Steady-state analysis was performed by fitting the average signal [drawing 77] as a function of total MBP-PDZ concentrations, assuming a simple 1∶1 interaction binding isotherm model. […] Reasons for this inaccuracy are likely to be the following: 1. As previously described, several repetitions of all the measurements are required to determine accurate K [drawing 81] . In our case, such repetitions were not achievable in reasonable time due to the large amount of interactions measured in this study. 2. The highest injected analyte concentration restricts the maximal K [drawing 82] (weakest interaction) that can be accurately obtained. 3. A K [drawing 83] is estimated based on a mathematical extrapolation of observed [drawing 84] signals leading to additional uncertainty. Based on these reasons, we considered the calculated K [drawing 85] not as accurate enough to be used for absolute binding strength comparison in this study. We rather performed a relative analysis of binding strengths using directly [drawing 86] signals which are not biased by any mathematical assumption. We focussed on [drawing 87] signals obtained at 10 [drawing 88] M MBP-PDZ concentration, which have been systematically measured in duplicate. The [drawing 89] signal is directly proportional to the molecular weight of the analyte and the amount of immobilised ligand. Therefore, the [drawing 90] signals were normalised taking those into account before being used for binding strength comparison. […]

SCRIB-3/4 PDZ domain = target: T2, SCRIB-3/4 PDZ domain (Homo sapiens, UniProt Q14160); conditions: tentative KD, SPR Biacore 2000, 25 C, steady state, 1:1 binding isotherm, MBP-PDZ 0-30 µM; to be considered with caution
T2 construct: cDNA bearing residues 997–1093, 1097–1193 and 997–1193 of human SCRIB (Uniprot acc.: Q14160-1); made in house; host or cells: E. coli BL21 DE3
T2 sequence (Q14160 997-1093 isoform Q14160-1): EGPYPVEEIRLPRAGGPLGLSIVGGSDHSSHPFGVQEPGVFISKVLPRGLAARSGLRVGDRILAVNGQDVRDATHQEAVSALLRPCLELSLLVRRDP
Experimental: as §1, §2, §3, §4

MAGI1-2/6 PDZ domain = target: T3, MAGI1-2/6 PDZ domain (Mus musculus, UniProt Q6RHR9)
T3 construct: The cDNA encoding residues 448–572 and 613–752 of mouse MAGI-1 (UniProt acc.: Q6RHR9-1) encoding for MAGI1-2/6; made in house; host or cells: E. coli BL21 DE3
T3 sequence (Q6RHR9 448-572): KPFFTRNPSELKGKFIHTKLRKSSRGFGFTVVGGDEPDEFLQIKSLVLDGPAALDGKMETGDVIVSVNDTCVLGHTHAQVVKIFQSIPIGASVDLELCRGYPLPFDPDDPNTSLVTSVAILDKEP
Experimental: as §1, §2, §3, §4

SCRIB-4/4 PDZ domain = target: T4, SCRIB-4/4 PDZ domain (Homo sapiens, UniProt Q14160); conditions: SPR Biacore 2000, 25 C, steady state, 1:1 binding isotherm, MBP-PDZ 0-30 µM; to be considered with caution; read-out: tentative KD
T4 construct: residues 997–1093, 1097–1193 and 997–1193 of human SCRIB (Uniprot acc.: Q14160-1); made in house; host or cells: E. coli BL21 DE3
T4 sequence (Q14160 1097-1193 isoform Q14160-1): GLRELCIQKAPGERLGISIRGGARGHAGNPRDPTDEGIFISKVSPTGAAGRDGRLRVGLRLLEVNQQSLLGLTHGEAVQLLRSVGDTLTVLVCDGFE
Experimental: as §1, §2, §3, §4

MAGI1-3/6 PDZ domain = target: T5, MAGI1-3/6 PDZ domain (Mus musculus, UniProt Q6RHR9); conditions: SPR Biacore 2000, 25 C, steady state, 1:1 binding isotherm, MBP-PDZ 0-30 µM; to be considered with caution; read-out: tentative KD
T5 construct: The cDNA encoding residues 448–572 and 613–752 of mouse MAGI-1 (UniProt acc.: Q6RHR9-1); made in house; host or cells: E. coli BL21 DE3
T5 sequence (Q6RHR9 613-752): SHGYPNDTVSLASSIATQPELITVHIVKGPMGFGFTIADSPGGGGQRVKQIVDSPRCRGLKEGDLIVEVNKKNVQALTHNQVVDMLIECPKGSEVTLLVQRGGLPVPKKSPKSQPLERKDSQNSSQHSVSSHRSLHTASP
Experimental: as §1, §2, §3, §4

Kd ([1]; read-out: tentative KD) [µM] | Kd (SCRIB-4/4 PDZ domain) [µM] | Compound | further results
– | 104 | CC(C)C[C@H](NC(=O)[C@@H](NC(=O)[C@H](CCC(=O)O)NC(=O)[C@@H]1CCCN1C(=O)CNC(=O)[C@H](C)NC(=O)CNC(=O)[C@H](CO)NC(=O)CNC(=O)CCCC[C@@H]1SC[C@@H]2NC(=O)N[C@@H]21)[C@@H](C)O)C(=O)N[C@H](C(=O)O)C(C)C [ARHGAP6_05] (Biotin-GSGAGPETLV-OH) | –
10 | 123 | CC(C)[C@H](NC(=O)[C@H](CCCNC(=N)N)NC(=O)[C@@H](NC(=O)[C@H](CCC(=O)O)NC(=O)[C@H](CCCCN)NC(=O)CNC(=O)[C@H](C)NC(=O)CNC(=O)[C@H](CO)NC(=O)CNC(=O)CCCC[C@@H]1SC[C@@H]2NC(=O)N[C@@H]21)[C@@H](C)O)C(=O)O [CYSLTR2_05] (Biotin-GSGAGKETRV-OH) | –
– | 893 | CC[C@H](C)[C@H](NC(=O)CNC(=O)[C@H](C)NC(=O)CNC(=O)[C@H](CO)NC(=O)CNC(=O)CCCC[C@@H]1SC[C@@H]2NC(=O)N[C@@H]21)C(=O)N[C@@H](C)C(=O)N[C@H](C(=O)N[C@@H](CCC(=O)O)C(=O)N[C@H](C(=O)O)C(C)C)[C@@H](C)O [DLL1_05] (Biotin-GSGAGIATEV-OH) | –
15 | – | CC(C)C[C@H](NC(=O)[C@@H](NC(=O)[C@H](CCC(=O)O)NC(=O)[C@H](CCCCN)NC(=O)CNC(=O)[C@H](C)NC(=O)CNC(=O)[C@H](CO)NC(=O)CNC(=O)CCCC[C@@H]1SC[C@@H]2NC(=O)N[C@@H]21)[C@@H](C)O)C(=O)N[C@H](C(=O)O)C(C)C [NET1_05] (Biotin-GSGAGKETLV-OH) | Kd (MAGI1-3/6 PDZ domain): 23 µM
9 | – | CC[C@H](C)[C@H](NC(=O)CNC(=O)[C@H](C)NC(=O)CNC(=O)[C@H](CO)NC(=O)CNC(=O)CCCC[C@@H]1SC[C@@H]2NC(=O)N[C@@H]21)C(=O)N[C@@H](CCC(=O)O)C(=O)N[C@@H](CO)C(=O)N[C@@H](CC(N)=O)C(=O)N[C@H](C(=O)O)C(C)C [TANC1_05] (Biotin-GSGAGIESNV-OH) | –
15 | – | CC[C@H](C)[C@H](NC(=O)[C@@H](NC(=O)[C@H](CCC(=O)O)NC(=O)[C@H](Cc1c[nH]cn1)NC(=O)CNC(=O)[C@H](C)NC(=O)CNC(=O)[C@H](CO)NC(=O)CNC(=O)CCCC[C@@H]1SC[C@@H]2NC(=O)N[C@@H]21)[C@@H](C)O)C(=O)N[C@H](C(=O)O)C(C)C [TMEM215_05] (Biotin-GSGAGHETIV-OH) | –

Further lines, the compound ahead of its results:

Compound | Kd ([1]; read-out: tentative KD) [µM] | Kd (SCRIB-4/4 PDZ domain) [µM] | further results
CC(C)C[C@H](NC(=O)[C@H](CCC(N)=O)NC(=O)[C@@H](NC(=O)[C@H](CCC(=O)O)NC(=O)[C@H](CCCNC(=N)N)NC(=O)[C@H](CCCNC(=N)N)NC(=O)[C@@H](NC(=O)[C@H](CCCNC(=N)N)NC(=O)[C@H](CO)NC(=O)[C@@H](N)CO)[C@@H](C)O)[C@@H](C)O)C(=O)O [16E6] | – | – | Kd ([1]; tentative KD): 3 µM; Kd (SCRIB-3/4 PDZ domain): 18 µM and 15 µM; Kd (MAGI1-2/6 PDZ domain; this study (Kd), Table S3, column this study, SPR): 3 µM
CC(C)C[C@H](NC(=O)[C@H](CCC(N)=O)NC(=O)[C@@H](NC(=O)[C@H](CCC(=O)O)NC(=O)[C@H](CCCNC(=N)N)NC(=O)CNC(=O)[C@H](C)NC(=O)CNC(=O)[C@H](CO)NC(=O)CNC(=O)CCCC[C@@H]1SC[C@@H]2NC(=O)N[C@@H]21)[C@@H](C)O)C(=O)O [16E6_05] (Biotin-GSGAGRETQL-OH) | – | – | Kd ([1]; tentative KD): 1 µM; Kd (SCRIB-3/4 PDZ domain): 12 µM; Kd (MAGI1-2/6 PDZ domain; tentative KD, SPR Biacore 2000, 25 C, steady state, 1:1 binding isotherm, MBP-PDZ 0-30 µM, to be considered with caution): 7 µM
CC(C)[C@H](NC(=O)[C@H](Cc1ccc(O)cc1)NC(=O)[C@H](CO)NC(=O)[C@H](CCC(=O)O)NC(=O)[C@H](CCCCN)NC(=O)CNC(=O)[C@H](C)NC(=O)CNC(=O)[C@H](CO)NC(=O)CNC(=O)CCCC[C@@H]1SC[C@@H]2NC(=O)N[C@@H]21)C(=O)O [ABC1_05] (Biotin-GSGAGKESYV-OH) | 10 | – | –
C[C@H](NC(=O)CNC(=O)[C@H](CO)NC(=O)CNC(=O)CCCC[C@@H]1SC[C@@H]2NC(=O)N[C@@H]21)C(=O)NCC(=O)N[C@@H](CCCCN)C(=O)N[C@@H](CCC(=O)O)C(=O)N[C@H](C(=O)N[C@@H](CO)C(=O)N[C@@H](Cc1ccccc1)C(=O)O)[C@@H](C)O [GLUT7_05] (Biotin-GSGAGKETSF-OH) | 5 | – | –
CC(C)[C@H](NC(=O)[C@@H](NC(=O)[C@@H](NC(=O)[C@H](CCC(=O)O)NC(=O)[C@H](CCCCN)NC(=O)CNC(=O)[C@H](C)NC(=O)CNC(=O)[C@H](CO)NC(=O)CNC(=O)CCCC[C@@H]1SC[C@@H]2NC(=O)N[C@@H]21)[C@@H](C)O)C(C)C)C(=O)O [MARCH3_05] (Biotin-GSGAGKETVV-OH) | 7 | – | –
CC(C)[C@H](NC(=O)[C@@H](NC(=O)[C@@H](NC(=O)[C@H](CCC(=O)O)NC(=O)[C@@H](NC(=O)CNC(=O)[C@H](C)NC(=O)CNC(=O)[C@H](CO)NC(=O)CNC(=O)CCCC[C@@H]1SC[C@@H]2NC(=O)N[C@@H]21)C(C)C)[C@@H](C)O)C(C)C)C(=O)O [MAS_05] (Biotin-GSGAGVETVV-OH) | 16 | 433 | –
CNTVTVETVV [MAS_10] | 3 | – | –

— paper PMC3206016, “Putting into Practice Domain-Linear Motif Interaction Predictions for Exploration of Protein Networks” (PLoS ONE, 2011)
